Consider 12 compounds from PubChem BioAssay (NCI).

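Briefly, cells in 96-well plates were exposed to five compound concentrations for 48 h, and endpoints were estimated by linear interpolation. The concentration for 50% growth inhibition is given as GI50. TGI is the concentration that stops growth completely.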 Where a SMILES comes first, the peptide text is derived from it. The star is where a group is joined. Fmoc = O=C(OCC1c2ccccc2-c2ccccc21)*; OBn = c1ccc(CO*)cc1; tBu = CC(C)(C)* Bounds are passed on as bounds.

Among the test systems are SK-MEL-2 melanoma; RXF 393 renal; MDA-MB-435; OVCAR-8 ovarian; UO-31 renal; BT-549 breast; RPMI-8226 leukemia; SNB-19 CNS; OVCAR-3 ovarian; MCF7 breast.
Holding throughout (assay): DTP human tumour cell line panel, 48 h

The TGI is the concentration giving total growth inhibition. One may read the GI50 as the concentration giving 50% growth inhibition.

With `CCCCCCCCCCCCCCCCOC[C@H](COC(c1ccccc1)(c1ccccc1)c1ccccc1)O[P+](=S)OC` (stereo partly specified), the TGI in the experiment on SK-MEL-2 melanoma, in the experiment on RXF 393 renal, with MDA-MB-435, in the experiment on OVCAR-8 ovarian, with UO-31 renal and with BT-549 breast was greater than 100 µM each time. Also, the TGI with RPMI-8226 leukemia, in the experiment on SNB-19 CNS, in the experiment on OVCAR-3 ovarian and in the experiment with MCF7 breast was greater than 100 µM each time.

Consider `CC(OC(C)(C)C)C(NC(=O)OCC1c2ccccc2-c2ccccc21)C(=O)NC(Cc1ccccc1)C(=O)OCc1ccccc1` (stereo unspecified) (Fmoc-Thr(tBu)-Phe-OBn; configuration not given here), for which the TGI with SK-MEL-2 melanoma, with RXF 393 renal, in the experiment on MDA-MB-435, in the experiment on OVCAR-8 ovarian, in the experiment on UO-31 renal and with BT-549 breast was greater than 100 µM throughout. Moreover, the TGI in the experiment on RPMI-8226 leukemia, with SNB-19 CNS, in the experiment with OVCAR-3 ovarian and with MCF7 breast was greater than 100 µM each time.

As to `CCOC(=O)c1c(-c2ccc(Cl)cc2)c(C#N)c(=S)n(C2OC(COC(C)=O)C(OC(C)=O)C(OC(C)=O)C2OC(C)=O)c1C` (stereo unspecified), the TGI in the experiment with SK-MEL-2 melanoma is greater than 66 µM; in the experiment on RXF 393 renal, greater than 100 µM; with MDA-MB-435, greater than 100 µM; in the experiment on OVCAR-8 ovarian it was greater than 100 µM; in the experiment on BT-549 breast it was greater than 100 µM; in the experiment on RPMI-8226 leukemia, greater than 100 µM. For the same compound, the TGI in the experiment on SNB-19 CNS, with OVCAR-3 ovarian and in the experiment with MCF7 breast was greater than 100 µM throughout. Also, the GI50 in the experiment with BT-549 breast was greater than 100 µM; in the experiment with RPMI-8226 leukemia, 36.1 µM.

Take `CCOC(=O)C(NC(=O)c1ccccc1)(Nc1ccc(S(=O)(=O)Nc2cc(C)on2)cc1)C(F)(F)F` (stereo unspecified): the TGI in the experiment on SK-MEL-2 melanoma, in the experiment with RXF 393 renal, in the experiment with MDA-MB-435, with OVCAR-8 ovarian, in the experiment with UO-31 renal and in the experiment with BT-549 breast was greater than 100 µM throughout. Besides, the TGI in the experiment with RPMI-8226 leukemia, with SNB-19 CNS, with OVCAR-3 ovarian and in the experiment with MCF7 breast was greater than 100 µM in each case.

For `Clc1ccc(-c2nn3c(COc4ccc(OCc5nnc6sc(-c7ccc(Cl)cc7)nn56)c(Cl)c4)nnc3s2)cc1`, the TGI with SK-MEL-2 melanoma is greater than 100 µM; with RXF 393 renal it was 44.1 µM; in the experiment on MDA-MB-435, greater than 100 µM; in the experiment on OVCAR-8 ovarian, 75 µM; with UO-31 renal it was 42.1 µM; with BT-549 breast it was 52.7 µM. The TGI in the experiment with RPMI-8226 leukemia was greater than 100 µM; in the experiment with SNB-19 CNS, 31.7 µM; in the experiment on OVCAR-3 ovarian it was greater than 100 µM; with MCF7 breast it was greater than 100 µM.

As to `Cn1c(COC(=O)NC2CCCCC2)c(COC(=O)NC2CCCCC2)c2ccc3ccccc3c21`, the TGI is 93.4 µM in the experiment with SK-MEL-2 melanoma; 83.3 µM in the experiment with RXF 393 renal; greater than 100 µM in the experiment on MDA-MB-435; greater than 100 µM in the experiment with OVCAR-8 ovarian; greater than 100 µM with UO-31 renal; greater than 100 µM in the experiment with BT-549 breast. In addition, the concentration for total growth inhibition (TGI) in the experiment on RPMI-8226 leukemia, in the experiment on SNB-19 CNS, in the experiment on OVCAR-3 ovarian and with MCF7 breast was greater than 100 µM each time.

`CC(C)(C)OC(=O)N1CCC2(CC1)C(=O)NCN2c1ccccc1`: the TGI with SK-MEL-2 melanoma, with RXF 393 renal, with MDA-MB-435, in the experiment with OVCAR-8 ovarian, in the experiment on UO-31 renal and in the experiment with BT-549 breast was greater than 100 µM throughout. Moreover, the TGI with RPMI-8226 leukemia, with SNB-19 CNS, with OVCAR-3 ovarian and in the experiment on MCF7 breast was greater than 100 µM each time.

On to `CSC1=C(C)C(/C=N/Nc2ccc([N+](=O)[O-])cc2)=C(C)N(c2ccccc2)S1(=O)=O`, for which the TGI in the experiment with SK-MEL-2 melanoma, in the experiment with RXF 393 renal, in the experiment on MDA-MB-435, in the experiment with OVCAR-8 ovarian, with UO-31 renal and with BT-549 breast was greater than 100 µM in each case. The total growth inhibition concentration (TGI) in the experiment with RPMI-8226 leukemia, in the experiment on SNB-19 CNS, in the experiment with OVCAR-3 ovarian and with MCF7 breast was greater than 100 µM each time.

For `C[N+](C)([O-])C12CC3CC(CC(C3)C1)C2`, the TGI in the experiment on SK-MEL-2 melanoma is greater than 100 µM; in the experiment with RXF 393 renal it was greater than 100 µM; in the experiment with MDA-MB-435 it was greater than 100 µM; in the experiment on OVCAR-8 ovarian, greater than 100 µM; in the experiment on UO-31 renal, 80.6 µM; in the experiment with BT-549 breast, greater than 100 µM. Besides, the TGI is 93.6 µM with RPMI-8226 leukemia, greater than 100 µM in the experiment with SNB-19 CNS, 58 µM in the experiment on OVCAR-3 ovarian and greater than 100 µM with MCF7 breast.

On to `Nc1c(-c2ccccc2)c2ccc([N+](=O)[O-])cc2c(=O)n1-c1cccc(C(=O)O)c1`, for which the TGI in the experiment with SK-MEL-2 melanoma, with RXF 393 renal, in the experiment on MDA-MB-435, in the experiment on OVCAR-8 ovarian, in the experiment on UO-31 renal and in the experiment on BT-549 breast was greater than 100 µM each time. For the same compound, the TGI in the experiment with RPMI-8226 leukemia, in the experiment on SNB-19 CNS, in the experiment with OVCAR-3 ovarian and in the experiment on MCF7 breast was greater than 100 µM each time.

`O=c1c2ccccc2n2nnc3ccc(NCCNCCO)c1c32`: the TGI in the experiment on SK-MEL-2 melanoma turned out to be 10.5 µM; in the experiment with RXF 393 renal it was 7.24 µM; with MDA-MB-435, 10.8 µM; with OVCAR-8 ovarian, 4.74 µM; with UO-31 renal it was 3.78 µM; in the experiment with BT-549 breast it was 10.1 µM. The TGI was found to be 13.7 µM in the experiment with RPMI-8226 leukemia, 17.7 µM with SNB-19 CNS, 5.81 µM in the experiment on OVCAR-3 ovarian and 14.9 µM with MCF7 breast.

Turning to `COc1cc(C2C3=C(NC(=O)C2C#N)c2ccc4ccccc4c2OCC3)cc(OC)c1OC` (stereo unspecified), the total growth inhibition concentration (TGI) in the experiment with SK-MEL-2 melanoma was 59.4 µM; in the experiment on RXF 393 renal, 32.9 µM; in the experiment on MDA-MB-435, greater than 100 µM; in the experiment on OVCAR-8 ovarian, greater than 100 µM; with UO-31 renal it was 28.3 µM; with BT-549 breast it was 42.9 µM. In addition, the TGI in the experiment with RPMI-8226 leukemia, in the experiment with SNB-19 CNS, in the experiment with OVCAR-3 ovarian and in the experiment on MCF7 breast was greater than 100 µM each time.
